Values quoted from earlier work, collected in patent US10342235B2, “Formulations comprising phosphite” (Ceradis B.V., priority 2015, dated 2019).

Tested on: rodents
Conditions: oral administration, dermal administration, inhalatory exposure

For potassium phosphite, the Toxicity in rodents is given as “low toxicity”.
